Source: patent US20210087159A1, “TETRAHYDROCANNABINOLIC- CA[…] DERIVATIVES AND USES THEREOF” (AL&AM […]., priority 2018, published 2021)

Experiments:
Assay type in all cases: cell-based
[1] = tested on: PANC-1, pancreas ductal carcinoma; assay: CellTiter-Glo cell viability assay, cancer cell cytotoxicity/anti-proliferation panel (Chempartner); details: for IC50: Homo sapiens, PANC-1, 72 h, read-out: IC50 (absolute IC50)
Experimental: (§1) In this study, the biological activity of certain compounds of the present invention on cancer cell cytotoxicity/anti-proliferation panel was tested using the CellTiter-Glo® cell viability assay. The compounds were dissolved in DMSO to make 10 mM solution.
(§2) The cell lines tested were all selected from the Chempartner's cell collection and included: Caco-2 ATCC colon adenocarcinoma; TE-6 RIKEN esophagus, carcinoma; PC-3 ATCC prostate adenocarcinoma; T47D, breast ductal carcinoma; U251, brain human glioma; A549, lung carcinoma; OMP-2, multiple myeloma; SK-HEP-1, liver adenocarcinoma; PANC-1, pancreas ductal carcinoma; AsPC-1, pancreas, ductal carcinoma; and U-87 MG, brain glioblastoma.
(§3) For the assays described herein, absolute inhibition of cells growth (%) and absolute IC50 (Abs IC50; […]) were used to derive a value that can be used to compare results within and across runs in the same assay, as well as between different assays.
(§4) • a. Prepare complete medium: Add FBS and appropriate additives according to the information sheet provided by the vendor. Mix gently. • b. Check the cell name and complete medium and passage number marked on the flask. For adherent cell lines, refer to c to k. For suspension cell lines, refer to g to k. • c. Remove and discard culture medium using a vacuum pump. • d. Briefly rinse the cell layer with 0.25% (w/v) trypsin-0.038% (w/v) EDTA solution to remove all traces of serum that contains trypsin inhibitor. • e. Add 3.0 ml of trypsin-EDTA solution to flask and observe cells under an inverted microscope until cell layer is dispersed. • f. Add 8.0 ml of complete growth medium and aspirate cells by gently pipetting. • g. Transfer the cell suspension to a centrifuge tube and centrifuge at 800-1000 rpm for 3-5 minutes. • h. Discard the supernatant using a vacuum pump. • i. Add appropriate volume of complete medium. Suspend the cell pellet by gently pipetting. • j. Count the cell numbers with Vi-cell XR and adjust cells to appropriate density. • k. Add 100 μL of cell suspension to 96-well opaque-walled clear bottom plates according to the planned plate layout and place the plates in the CO2 incubator overnight. • l. Plate layout:
(§5) • Plate preparation of testing articles. 10 mM stock solution of each one of the compounds (provided as powder) was prepared in DMSO. […] 0.5 μL of each of the diluted compounds was transferred to the wells containing 100 μL of the culture medium. The total dilution was 200 fold. Cells were incubated with the compounds for 72 hours at 5% CO2, 37° C.
(§6) • Thaw the CellTiter-Glo buffer and equilibrate to room temperature prior to use. • Equilibrate the lyophilized CellTiter-Glo substrate to room temperature prior to use. • Transfer the appropriate volume of CellTiter-Glo buffer into the amber bottle containing CellTiter-Glo substrate to reconstitute the lyophilized enzyme/substrate mixture. This forms the CellTiter-Glo reagent. • Mix by gently vortexing, swirling or by inverting the contents to obtain a homogeneous solution. The CellTiter-Glo substrate should go into solution easily in less than one minute.
(§7) • Observe the cell morphology under an inverted microscope after corresponding treatment. • Equilibrate the plate and its contents to room temperature for approximately 30 minutes. • Add 100 μL of CellTiter-Glo reagent to the assay plate by Multidrop Combi instrument. • Mix contents for 10 minutes on an orbital shaker to induce cell lysis. • Allow the plate to incubate at room temperature for 10 minutes to stabilize luminescent signal. • Paste the clear bottom with white back seal and record luminescence with Enspire. The settings should be: Luminescence, measurement time 0.1 ms.
(§8) Inhibition (%) and absolute IC50 (μM) of each compound was calculated with XLFit curve fitting software that is compatible to Activity Base.

[2] = tested on: SK-HEP-1, liver adenocarcinoma; assay: as above; details: Homo sapiens, SK-HEP1, 72 h; read-out: IC50 (absolute IC50)
Experimental: as §1, §2, §3, §4, §5, §6, §7, §8

[3] = tested on: U-87 MG, brain glioblastoma; assay: as above; details: for IC50: Homo sapiens, 72 h, read-out: IC50 (absolute IC50)
Experimental: as §1, §2, §3, §4, §5, §6, §7, §8

[4] = tested on: PANC-1 (pancreatic carcinoma); assay: XTT cytotoxicity assay (Pharma Seed); details: Homo sapiens, 48 hours, 20, 10, 5, 1 μM, assay medium 1% FBS
Experimental: In this study, the cytotoxicity of several compounds of the present invention on lung and pancreatic cancer cell was evaluated.
PANC-1 (pancreatic carcinoma) culture medium: DMEM (High Glucose), supplemented with 10% FBS (heat inactivated), 2 mM L-glutamine, and 1% of Pen/Strep/Amp solution. PANC-1 assay medium: DMEM (High Glucose), supplemented with 1% FBS (heat inactivated), 2 mM L-glutamine, and 1% of Pen/Strep/Amp solution.
Each of the tested compounds was dissolved in DMSO to reach a stock concentration of 20 mM (and stored at −15° C.-−25° C. until use. Compound Ia28 (MW 484 g/mol, 3.05 mg total) was dissolved in 0.315 mL; compound Ia9 (MW 484 g/mol, 2.33 mg total) was dissolved in 0.241 mL; and compound Ia6 (MW 428.3 g/mol, 2.25 mg total) was dissolved in 0.262 mL.
On the day of incubation with the cells, each compound was diluted in DMSO to reach 2 mM, 1 mM, 0.5 mM, 0.1 mM stock concentrations (1:10, 1:20, 1:40 and 1:200), and each of these stocks was further diluted in assay medium 1:100 for final concentration of 20 μM, 10 μM, 5 μM, and 1 μM.
Part 1—cell number calibration. PANC-1 and A549 cells were each plated in a 96 well plate, in their culture medium, at various cell concentrations per well, in triplicates, and were allowed to attach for 24 hours. Thereafter, culture medium was discarded, assay medium was added, and the cells were incubated for additional 72 hours. Finally, assay medium was discarded, and fresh culture medium was added to the cells along with 50 μl XTT reagent. The OD was measured every two hours for 6 hours (three times).
The highest cells number/well were chosen for part 2 as follows: PANC-1 at 7,500 cells per well, A549 at 5000 cells per well.
Part 2—cells incubation with tested compounds. PANC-1 and A549 cells were plated in a 96 well plate, in their culture medium, at the optimal cell concentration according to the results from the previous section and were allowed to attach for 24 hours. Thereafter, the culture medium was discarded, and fresh assay medium was added to the cells, supplemented with elevating compound concentrations. Triton 0.1% was used as positive control for cell death. The cells were incubated for another 48 hours (TBD upon microscopic observation). Finally, fresh culture medium was added to the cells along with 50 μl XTT reagent. The OD was measured at the optimal time point according to the results in the previous section.

TNF-α = assay: LPS induced cytokine release assay, TNF-α by ELISA in PBMCs; details: human PBMCs; for TNF-α: 72 h, ELISA (LPS control 18.16)
Text: (§9) This study was aimed to test the effect of 12 compounds (THCA, Ia1, Ia5, Ia6, Ia9, Ia11, Ia15, Ia17, Ia24, Ia25, Ia27, and Ia28) on human peripheral blood mononuclear cells (PBMCs) challenged by lipopolysaccharide (LPS) through monitoring multiple inflammatory endpoints.
(§10) Blood samples were collected from healthy volunteers according to protocols that have been reviewed and approved by the Chempartner Institutional Ethic Committee (IEC) upon signing an Informed Consent Form (ICF).
(§11) Fresh PBMCs were isolated and seeded into 96-well plate, and diluted solutions of the tested compounds and 0.1 μg/mL LPS were then added (in triplicates). To serve as control, 3 wells with PBMCs only, 3 wells with 0.1 μg/mL LPS, and 2 wells with 1 μg/mL dexamethasone (Dex) and 0.1 μg/mL LPS were included. After 72 hours incubation, supernatant was collected for tumor necrosis factor-α (TNF-α) measurement by enzyme-linked immunosorbent assay (ELISA), and cell pellets were harvested for cell proliferation measurement by CellTiter-Glo® Luminescent Cell Viability Assay (CTG).
(§12) The human blood sample from an individual donor was diluted by the same volume of sterile phosphate buffered solution (PBS) and mixed sufficiently by gentle shake. 15 mL Lymphoprep™ medium was transferred into a new 50 mL centrifuge tube, and the diluted blood sample (30 mL) was then carefully added onto the surface of the medium, which consequently contained Ficoll 400 and blood in a volume ratio of 1:2. Four interfaces were observed after centrifugation, which are, from top to bottom, layers of plasma, mononuclear cells, Ficoll medium, and red blood cells (RBCs). Plasma was absorbed, and mononuclear cells were then transferred into another new sterile centrifuge tube. Then, sterile PBS buffer was added into the collected PBMCs for washing, at a volume ratio of 3:1. PBMCs were washed with 5-10 mL PBS twice before cell counting with cytometer. Cells were centrifuged at 350×g, for 10 min, at 20° C. with the acceleration (5) and deceleration (5) settings during the centrifugation. The cells were resuspended with RPMI 1640 complete medium (containing 10% FBS) for assay, and the density was adjusted with RPMI 1640 complete medium to the final concentration of 2E6 cells/mL. Cells suspension of the PBMCs (100 μL/well) were seeded into 96-well plate (#3903).
(§13) Diluted solutions of the tested compounds were prepared with RPMI 1640 complete medium according to the following layout. Compounds were prepared at 5-fold of concentration (50 μM), and then were diluted to the working concentration of 10 μM with RPMI 1640 complete medium and made 10-fold serially dilution (2 points). The diluted compounds (50 μL/well) were added to the indicated wells, and the plate was incubated at 37° C., 5% CO2, for 72 h.
(§14) LPS (0.1 μg/mL, 100 μL) was added into each well. Dex (1 μg/mL) was included as a positive control. Plate was incubated at 37° C., 5% CO2 for 72 h. Supernatant was collected to measure TNF-α by ELISA. Cell proliferation was detected by CTG.

[5] = tested on: human peripheral blood mononuclear cells (PBMCs); assay: Cell proliferation of LPS-challenged PBMCs by CellTiter-Glo (CTG); details: human PBMCs, 72 h (LPS control 84.50)
Text: as §9, §10, §11, §12, §13, §14

A549, lung carcinoma = assay: CellTiter-Glo cell viability assay, cancer cell cytotoxicity/anti-proliferation panel (Chempartner)
Experimental: as §1, §2, §3, §4, §5, §6, §7, §8

[6] = tested on: AsPC-1, pancreas, ductal carcinoma; assay: as above
Experimental: as §1, §2, §3, §4, §5, §6, §7, §8

[7] = tested on: T47D, breast ductal carcinoma; assay: as above; details: T47D
Experimental: as §1, §2, §3, §4, §5, §6, §7, §8

[8] = 72 hours, compounds 10 μM starting, STS 2 μM starting, 10-pt, 3-fold dilution

Structure (SMILES): CN[C@@H]1C[C@H]2O[C@@](C)([C@@H]1OC)n1c3ccccc3c3c4c(c5c6ccccc6n2c5c31)C(=O)NC4 [STS, Staurosporine, reference compound]
- IC50 [1]: 0.04 µM
- IC50 [2]: 0.07 µM
- IC50 [3]: 0.082 µM

Structure (SMILES): C=C(C)[C@@H]1CCC(C)=C[C@H]1c1c(O)cc(CCCCC)c(C(=O)NCCN2CCCC2)c1O [Ia27, (1′R,2′R)-2,6-dihydroxy-5′-methyl-4-pentyl-2′-(prop-1-en-2-yl)-N-(2-(pyrrolidin-1-yl)ethyl)-1′,2′,3′,4′-tetrahydro-[1,1′-biphenyl]-3-carboxamide]
- IC50 [4]: 7.5 µM
- TNF-α (TNF-α; compound 1 μM + 0.1 μg/mL LPS): 36.23 pg/mL
- TNF-α (TNF-α; compound 10 μM + 0.1 μg/mL LPS): 22.09 pg/mL
- change of TNF-α expression in LPS-treated cells (TNF-α; tested concentrations of 1 M and 10 M (so in the source)): decreased TNF-α expression
- CTG signal ([5]; compound 1 μM + 0.1 μg/mL LPS): 81.90 10^4
- CTG signal ([5]; compound 10 μM + 0.1 μg/mL LPS): 78.67 10^4

Structure (SMILES): CCCCCc1cc2c(c(O)c1C(=O)NCCn1ccnc1)[C@@H]1C=C(C)CC[C@H]1C(C)(C)O2 [Ia33, (6aR,0aR)—N-(2-(1H-imidazol-1-yl)ethyl)-1-hydroxy-6,6,9-trimethyl-3-pentyl-6a,7,8,10a-tetrahydro-6H-benzo[c]chromene-2-carboxamide]
- IC50 [4]: 6.7 µM

Structure (SMILES): CCCCCc1cc2c(c(O)c1C(=O)N/N=C/c1ncccn1)[C@@H]1C=C(C)CC[C@H]1C(C)(C)O2 [Ia16, (6aR,10aR)-1-hydroxy-6,6,9-trimethyl-3-pentyl-N′-((E)-pyrimidin-2-ylmethylene)-6a,7,8,10a-tetrahydro-6H-benzo[c]chromene-2-carbohydrazide]
- Inhibition (A549, lung carcinoma; A549, 72 hours, compounds 10 μM starting, STS 2 μM starting, 10-pt, 3-fold dilution): 70.01%
- IC50 (A549, lung carcinoma; Homo sapiens, A549, 72 h, read-out: IC50 (absolute IC50)): 5.53 µM
- Inhibition ([6]; AsPC-1, 72 hours, compounds 10 μM starting, STS 2 μM starting, 10-pt, 3-fold dilution): 67.70%
- IC50 ([6]; Homo sapiens, ASPC1, 72 h, read-out: IC50 (absolute IC50)): 4.34 µM
- IC50 [1]: 1.88 µM
- Inhibition ([1]; PANC-1, 72 hours, compounds 10 μM starting, STS 2 μM starting, 10-pt, 3-fold dilution): 85.71%
- IC50 ([7]; Homo sapiens, 72 h, read-out: IC50 (absolute IC50)): > 10 µM
- Inhibition [7, 8]: 47.20%
- Inhibition [3, 8]: 73.80%
- IC50 [3]: 3.37 µM
- IC50 [4]: 7 µM

Structure (SMILES): CCCCCc1cc2c(c(O)c1C(=O)NCCNc1ncccn1)[C@@H]1C=C(C)CC[C@H]1C(C)(C)O2 [Ia31, (6aR,0aR)-1-hydroxy-6,6,9-trimethyl-3-pentyl-N-(2-(pyrimidin-2-ylamino)ethyl)-6a,7,8,10a-tetrahydro-6H-benzo[c]chromene-2-carboxamide]
- IC50 [4]: 8.5 µM

Structure (SMILES): CCCCCc1cc2c(c(O)c1C(=O)NCCN1CCCC1)[C@@H]1C=C(C)CC[C@H]1C(C)(C)O2 [Ia32, (6aR,0aR)-1-hydroxy-6,6,9-trimethyl-3-pentyl-N-(2-(pyrrolidin-1-yl)ethyl)-6a,7,8,10a-tetrahydro-6H-benzo[c]chromene-2-carboxamide]
- IC50 [4]: 3.9 µM
